According to patent publication US20230027361A1, “METTL3 MODULATORS” (priority 2019, published 2023):

tested on: MOLM-13 cells; experiment: MOLM-13 96 Hour Cell Proliferation Assay; type: cell-based; settings: Homo sapiens
Protocol: MOLM-13 (DSMZ) cells were seeded at 600 cells per well in a volume of 44 μL in a Greiner Bio-One CELLSTAR™ 384 Well Polystyrene Cell Culture clear bottom microplate in RPMI 1640 media containing 10% fetal bovine serum using a Multidrop Combi (ThermoFisher Scientific). Cells were incubated overnight at 37° C. in a humidified tissue culture incubator. To prevent evaporation or to reduce edge effect, add 50 μL or more H2O to an empty plate, cover, and place on top of the cell plates. The Mosquito® HTS Liquid Handler was used to make a compound/media intermediate plate by aliquoting 1 μL of compound from the initial compound dilution plate (concentrations ranging from 10.0 mM to 38.0 nM in 100% DMSO) into Bio-One 384-well polypropylene conical bottom microplate containing 49 μL of media containing the appropriate serum (50-fold dilution, 2% DMSO, compound concentrations ranging from 200.0 μM and […]). The Apricot liquid handling system was used to transfer 6.2 μL compounds from the intermediate plate into the seeding plate containing 44 μL cells (8-fold dilution spanning concentrations 25.0 μM to […], 0.25% DMSO final), and placed in a humidified tissue culture incubator at 37° C. After 96 hours, 25 μL of Cell Titer-Glo reagent (Promega) was added to each well using an Integra liquid handling system. The plate was protected from light using TopSeal-A (Black) film over the entire plate, added White Bottom seal film on the bottom of the entire plate for a better reading on the Envision, and placed on an IKA plate shaker for at 300 rpm for 10 minutes at room temperature. The plate was read on an EnVision plate reader (Perkin Elmer) using the Ultra Sensitive Luminescence protocol. Data analysis was performed by normalizing the raw luminescence units to an average of the positive control values for staurosporine (100% cell death) and the negative control values for DMSO (0% cell death). An IC50 was calculated using a 4-parameter logistic nonlinear regression model in GraphPad Prism.

| SMILES | IC50 [nM] |
| --- | --- |
| CN(CCO)c1ccc2ccc(OC[C@H]3O[C@@H](n4cc(-c5ccn(C)n5)c5c(N)ncnc54)[C@@H](F)[C@@H]3O)cc2n1 [I-162] | < 1000 |
| Nc1ncnc2c1c(-n1ccc(C(F)(F)F)n1)cn2[C@H]1C[C@H](O)[C@@H](COc2ccc3ccc(N4CCC4)nc3c2)O1 [I-178] | 1000 to 10000 |
| Cn1ccc(-c2cn([C@@H]3O[C@H](COc4ccc5ccc(N6CC(N)C6)nc5c4)[C@@H](O)[C@@H]3F)c3ncnc(N)c23)n1 [I-181] | < 1000 |
| Nc1ncnc2c1c(-n1ccc(C(F)(F)F)n1)cn2[C@@H]1O[C@H](COc2ccc3ccc(N4CCC4)nc3c2)[C@@H](O)[C@@H]1F [I-221] | 1000 to 10000 |

same assay, conditions: Homo sapiens, MOLM-13, 96 h

| SMILES | IC50 [nM] |
| --- | --- |
| Nc1ccc2ccc(CC[C@H]3C[C@@H](n4cc(C5CCCC5)c5c(N)ncnc54)[C@H](O)[C@@H]3O)cc2n1 [I-60] | < 1000 |

target: METTL3/METTL14 (Homo sapiens, UniProt Q86U44); experiment: METTL3-14 Standard Enzyme Assay (METTL3 biochemical assay); settings: not given
Outline: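 Tritium transfer from ³H-SAM (100 nM) to biotinylated RNA (100 nM) captured on streptavidin flashplates and counted by scintillation. Enzyme complex (2.5 nM) with compound, 5 min preincubation, 30 min reaction at ambient temperature, HEPES pH 7.5 buffer, stopped by excess unlabeled SAM.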

METTL3/METTL14, sequence (Q86U44 whole entry, species assumed): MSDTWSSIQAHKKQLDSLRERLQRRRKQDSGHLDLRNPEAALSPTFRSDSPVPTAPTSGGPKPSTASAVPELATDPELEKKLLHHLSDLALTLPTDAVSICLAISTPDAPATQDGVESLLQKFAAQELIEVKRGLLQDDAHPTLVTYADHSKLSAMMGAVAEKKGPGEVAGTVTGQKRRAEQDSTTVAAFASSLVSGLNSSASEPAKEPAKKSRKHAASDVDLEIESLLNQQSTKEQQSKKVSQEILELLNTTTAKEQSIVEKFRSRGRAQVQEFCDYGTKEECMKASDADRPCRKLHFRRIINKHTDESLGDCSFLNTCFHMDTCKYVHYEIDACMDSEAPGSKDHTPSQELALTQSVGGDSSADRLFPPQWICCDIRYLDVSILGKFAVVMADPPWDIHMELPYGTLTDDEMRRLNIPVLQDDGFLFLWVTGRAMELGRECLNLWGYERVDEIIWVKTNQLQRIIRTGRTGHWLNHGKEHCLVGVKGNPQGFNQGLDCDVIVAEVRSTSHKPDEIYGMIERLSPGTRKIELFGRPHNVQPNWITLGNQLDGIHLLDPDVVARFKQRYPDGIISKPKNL
METTL3/METTL14, sequence (Q9HCE5 whole entry partner, species assumed): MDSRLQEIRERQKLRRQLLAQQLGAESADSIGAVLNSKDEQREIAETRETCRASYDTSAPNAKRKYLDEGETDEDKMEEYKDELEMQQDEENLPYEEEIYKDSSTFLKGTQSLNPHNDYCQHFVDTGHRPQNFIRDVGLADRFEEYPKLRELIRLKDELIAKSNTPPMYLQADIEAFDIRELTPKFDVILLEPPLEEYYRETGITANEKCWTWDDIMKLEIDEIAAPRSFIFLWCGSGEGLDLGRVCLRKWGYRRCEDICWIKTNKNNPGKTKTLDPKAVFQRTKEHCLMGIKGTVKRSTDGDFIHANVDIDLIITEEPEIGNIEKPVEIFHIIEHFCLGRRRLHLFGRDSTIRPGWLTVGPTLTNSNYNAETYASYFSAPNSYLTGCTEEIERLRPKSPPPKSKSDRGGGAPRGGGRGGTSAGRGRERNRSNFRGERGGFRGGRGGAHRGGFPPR

| SMILES | IC50 [nM] |
| --- | --- |
| CN(CCO)c1ccc2ccc(OC[C@H]3O[C@@H](n4cc(-c5ccn(C)n5)c5c(N)ncnc54)[C@@H](F)[C@@H]3O)cc2n1 [I-162] | < 10 |
| Nc1ncnc2c1c(-n1ccc(C(F)(F)F)n1)cn2[C@H]1C[C@H](O)[C@@H](COc2ccc3ccc(N4CCC4)nc3c2)O1 [I-178] | < 10 |
| Cn1ccc(-c2cn([C@@H]3O[C@H](COc4ccc5ccc(N6CC(N)C6)nc5c4)[C@@H](O)[C@@H]3F)c3ncnc(N)c23)n1 [I-181] | < 10 |
| Nc1ncnc2c1c(-n1ccc(C(F)(F)F)n1)cn2[C@@H]1O[C@H](COc2ccc3ccc(N4CCC4)nc3c2)[C@@H](O)[C@@H]1F [I-221] | < 10 |

same assay, conditions: METTL3 biochemical assay; read-out: METTL3 IC50

| SMILES | IC50 [nM] |
| --- | --- |
| Nc1ccc2ccc(CC[C@H]3C[C@@H](n4cc(C5CCCC5)c5c(N)ncnc54)[C@H](O)[C@@H]3O)cc2n1 [I-60] | 10 to 100 |

target: PRMT5-MEP50 (Homo sapiens, UniProt O14744); experiment: PRMT5 Assay (PRMT5 biochemical assay); settings: not given
Outline: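 Radiometric methyltransferase read-out: after 60 min reaction, excess unlabelled SAM (15 μM) stops turnover and biotinylated H4 peptide (100 nM) carrying 3H-methyl from 250 nM 3H-SAM is captured on streptavidin flashplates (2 h, 25° C) for scintillation counting. Enzyme, 2.5 nM PRMT5-MEP50, was preincubated 5 min with compound in pH 8.0 Tris buffer with DTT and Tween.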

PRMT5-MEP50, sequence (O14744 whole entry): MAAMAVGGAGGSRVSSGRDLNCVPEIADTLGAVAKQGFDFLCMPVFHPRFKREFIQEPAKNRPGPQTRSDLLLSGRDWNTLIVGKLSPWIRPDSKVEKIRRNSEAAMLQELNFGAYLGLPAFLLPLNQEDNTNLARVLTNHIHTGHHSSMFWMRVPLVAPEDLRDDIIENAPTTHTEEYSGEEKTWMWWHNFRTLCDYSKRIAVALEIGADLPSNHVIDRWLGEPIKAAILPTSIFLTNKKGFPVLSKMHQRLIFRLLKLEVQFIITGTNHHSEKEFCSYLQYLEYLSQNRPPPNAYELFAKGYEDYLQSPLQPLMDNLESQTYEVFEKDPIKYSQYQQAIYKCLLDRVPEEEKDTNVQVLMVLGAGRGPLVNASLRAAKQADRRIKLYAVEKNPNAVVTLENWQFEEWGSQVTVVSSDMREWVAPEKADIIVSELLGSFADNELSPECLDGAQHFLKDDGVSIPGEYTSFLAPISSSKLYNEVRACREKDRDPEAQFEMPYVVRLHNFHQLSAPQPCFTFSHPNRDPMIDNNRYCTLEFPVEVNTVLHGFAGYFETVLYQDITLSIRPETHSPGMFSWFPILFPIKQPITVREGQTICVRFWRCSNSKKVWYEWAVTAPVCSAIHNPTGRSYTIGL
PRMT5-MEP50, sequence (Q9BQA1 whole entry partner): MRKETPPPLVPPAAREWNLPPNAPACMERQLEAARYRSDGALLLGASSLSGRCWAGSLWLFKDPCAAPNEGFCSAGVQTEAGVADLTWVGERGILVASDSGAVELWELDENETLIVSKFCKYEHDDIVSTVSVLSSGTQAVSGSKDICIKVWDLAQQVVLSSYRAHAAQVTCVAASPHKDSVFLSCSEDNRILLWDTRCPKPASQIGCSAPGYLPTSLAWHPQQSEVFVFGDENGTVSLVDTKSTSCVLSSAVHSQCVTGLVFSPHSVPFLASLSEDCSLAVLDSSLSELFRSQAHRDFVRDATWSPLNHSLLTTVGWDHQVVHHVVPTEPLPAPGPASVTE

| SMILES | IC50 [nM] |
| --- | --- |
| CN(CCO)c1ccc2ccc(OC[C@H]3O[C@@H](n4cc(-c5ccn(C)n5)c5c(N)ncnc54)[C@@H](F)[C@@H]3O)cc2n1 [I-162] | > 1000 |
| Nc1ncnc2c1c(-n1ccc(C(F)(F)F)n1)cn2[C@H]1C[C@H](O)[C@@H](COc2ccc3ccc(N4CCC4)nc3c2)O1 [I-178] | > 1000 |
| Cn1ccc(-c2cn([C@@H]3O[C@H](COc4ccc5ccc(N6CC(N)C6)nc5c4)[C@@H](O)[C@@H]3F)c3ncnc(N)c23)n1 [I-181] | > 1000 |
| Nc1ncnc2c1c(-n1ccc(C(F)(F)F)n1)cn2[C@@H]1O[C@H](COc2ccc3ccc(N4CCC4)nc3c2)[C@@H](O)[C@@H]1F [I-221] | > 1000 |

same assay, conditions: PRMT5 biochemical assay; read-out: PRMT5 IC50

| SMILES | IC50 [nM] |
| --- | --- |
| Nc1ccc2ccc(CC[C@H]3C[C@@H](n4cc(C5CCCC5)c5c(N)ncnc54)[C@H](O)[C@@H]3O)cc2n1 [I-60] | < 10 |

tested on: MOLM-13 cells; experiment: MOLM-13 48 Hour Cell Proliferation Assay; type: cell-based; settings: Homo sapiens
Protocol: MOLM-13 (DSMZ) cells were seeded at 1000 cells per well in a volume of 44 μL in a Falcon 384-well tissue culture treated clear bottom microplate in RPMI 1640 media containing 10% fetal bovine serum using a Multidrop Combi (ThermoFisher Scientific). Cells were incubated overnight at 37° C. in a humidified tissue culture incubator. The Mosquito® HTS Liquid Handler was used to make a compound/media intermediate plate by aliquoting 1 μL of compound from the initial compound dilution plate (concentrations ranging from 10.0 mM to 38.0 nM in 100% DMSO) into a V bottom 384-well screen matrix plate containing 49 μL of media containing the appropriate serum (50-fold dilution, 2% DMSO). The Apricot liquid handling system was used to transfer 6.2 μL compounds from the intermediate plate into the Falcon 384-well tissue culture plate containing 44 μL cells (10-point, 4-fold dilution spanning concentrations 25.0 μM to […], 0.25% DMSO final), and placed in a humidified tissue culture incubator at 37° C. After 48 hours, 25 μL of Cell Titer-Glo reagent (Promega) was added to each well using a Multidrop Combi. The plate was protected from light and placed on an IKA plate shaker for at 300 rpm for 10 minutes at room temperature. The plate was read on an EnVision plate reader (Perkin Elmer) using the Ultra Sensitive Luminescence protocol. Data analysis was performed by normalizing the raw luminescence units to an average of the positive control values for staurosporine (100% cell death) and the negative control values for DMSO (0% cell death). An IC50 was calculated using a 4-parameter logistic nonlinear regression model in GraphPad Prism.

| SMILES | IC50 [nM] |
| --- | --- |
| Nc1ccc2ccc(CC[C@H]3C[C@@H](n4cc(C5CCCC5)c5c(N)ncnc54)[C@H](O)[C@@H]3O)cc2n1 [I-60] | 1000 to 10000 |
| CN(CCO)c1ccc2ccc(OC[C@H]3O[C@@H](n4cc(-c5ccn(C)n5)c5c(N)ncnc54)[C@@H](F)[C@@H]3O)cc2n1 [I-162] | 1000 to 10000 |
| Nc1ncnc2c1c(-n1ccc(C(F)(F)F)n1)cn2[C@H]1C[C@H](O)[C@@H](COc2ccc3ccc(N4CCC4)nc3c2)O1 [I-178] | 1000 to 10000 |
| Cn1ccc(-c2cn([C@@H]3O[C@H](COc4ccc5ccc(N6CC(N)C6)nc5c4)[C@@H](O)[C@@H]3F)c3ncnc(N)c23)n1 [I-181] | < 1000 |
| Nc1ncnc2c1c(-n1ccc(C(F)(F)F)n1)cn2[C@@H]1O[C@H](COc2ccc3ccc(N4CCC4)nc3c2)[C@@H](O)[C@@H]1F [I-221] | 1000 to 10000 |

target: METTL1/WDR4 (Homo sapiens, UniProt Q9UBP6); experiment: METTL1 Assay (METTL1 biochemical assay); settings: read-out: METTL1 IC50; METTL1 biochemical assay
Outline: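 Radiometric methyltransfer by METTL1/WDR4 (6.25 nM f.c., 5 min preincubation) at ambient temperature in HEPES pH 7.5, KCl, MgCl2, DTT; started with 25 nM 3′-biotinylated RNA and 60 nM 3H-SAM, run 20 min, quenched with 15 μM cold SAM. Product captured on streptavidin flashplates (2 h, 25° C), counted by scintillation.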

METTL1/WDR4, sequence (Q9UBP6 whole entry, species assumed): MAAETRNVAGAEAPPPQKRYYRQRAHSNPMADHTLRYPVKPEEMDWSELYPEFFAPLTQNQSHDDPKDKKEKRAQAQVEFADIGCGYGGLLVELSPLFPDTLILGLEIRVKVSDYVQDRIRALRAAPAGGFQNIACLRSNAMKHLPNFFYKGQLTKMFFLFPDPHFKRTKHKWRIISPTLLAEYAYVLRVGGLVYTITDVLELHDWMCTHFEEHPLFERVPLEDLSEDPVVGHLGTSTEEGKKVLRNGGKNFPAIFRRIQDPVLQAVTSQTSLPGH
METTL1/WDR4, sequence (P57081 whole entry partner, species assumed): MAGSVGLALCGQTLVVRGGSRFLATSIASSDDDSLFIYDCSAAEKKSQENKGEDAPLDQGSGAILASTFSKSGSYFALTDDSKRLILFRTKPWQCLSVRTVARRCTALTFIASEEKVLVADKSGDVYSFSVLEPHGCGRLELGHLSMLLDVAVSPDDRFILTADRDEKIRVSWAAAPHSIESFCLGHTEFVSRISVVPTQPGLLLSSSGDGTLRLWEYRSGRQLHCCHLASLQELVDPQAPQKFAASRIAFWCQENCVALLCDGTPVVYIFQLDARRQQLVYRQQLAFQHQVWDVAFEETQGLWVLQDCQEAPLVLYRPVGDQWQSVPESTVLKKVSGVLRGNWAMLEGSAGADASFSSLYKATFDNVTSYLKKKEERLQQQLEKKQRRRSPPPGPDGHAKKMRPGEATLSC

| SMILES | IC50 [nM] |
| --- | --- |
| Nc1ccc2ccc(CC[C@H]3C[C@@H](n4cc(C5CCCC5)c5c(N)ncnc54)[C@H](O)[C@@H]3O)cc2n1 [I-60] | > 1000 |
